Reference: patent US20180249714A1, “Liquid Termiticide Compositions of Pyrethroids and Neonicitinoids” (FMC Corporation, priority 2004, published 2018)

What was measured:
Type in all cases: in vivo
[1] = system: termite (Reticulitermes flavipes) workers; assay: Test to Determine Termite Mortality by Applications of Combinations of Bifenthrin and Thiamethoxam (soil column in glass tube)
Method: (§1) The compositions of the present invention were tested for termiticide activity in the following manner:
Test compositions made up of TALSTAR® TERMITICIDE/INSECTICIDE and a wettable powder of thiamethoxam in distilled water were prepared that provided appropriate rates of application of combinations of bifenthrin and thiamethoxam, as well as bifenthrin and thiamethoxam alone.
(§2) Glass tubing, 13 mm in diameter, was then cut into 20 cm sections in sufficient quantity to conduct the test. Each […] section of tubing was marked at 5 cm, 8 cm, and 18 cm distances from one end of the tube designated as the bottom. Each section of tubing was packed with a sandy soil (3% wt/wt moisture content) by first placing a section of a 1 cm diameter wooden dowel into the bottom of the glass tube up to the 8 cm marking, then introducing approximately 2 cm of soil into the other end of the tube designated as the top. The soil was then gently packed into the tube from the top using a second section of the 1 cm diameter wooden dowel. The process was repeated using 2 cm aliquots of soil until the soil level was adjacent to the 18 cm marking, thereby providing a column of soil 10 cm in height. An agar plug, which was formed in a section of the 13 mm diameter glass tubing of the type used to conduct these tests, was cut into 3 cm sections. A 3 cm section of agar was then gently pushed into the bottom of each tube containing the soil until the agar plug firmly touched the soil at the 8 cm marking, thereby creating a 5 cm void in the bottom of each section of tubing. Following placement of the agar plugs in each section of tubing; two sections of applicator sticks cut in 6 cm lengths were inserted into the bottom end of each tube thereby forcing about 1 cm of each stick into the agar plug to hold the agar plug in place. Plastic caps, with an inside diameter of 13 mm and holes drilled in their centers, were placed on the bottom ends of each of the sections of tubing. A sharpened applicator stick was then inserted into the hole in each plastic cap through the agar plug to the intersection of the agar plug and the soil. The applicator stick was then gently removed in a rotating manner to provide a means for a free flow of liquid through the soil. Each section of tubing was then stood upright, and 0.5 mL aliquots of each suspension of bifenthrin, thiamethoxam or combinations thereof, as prepared above, were pipetted onto the top of the soil. Upon application of the test suspensions the top of each section of tubing was covered with a small piece of aluminum foil. The tubes were then allowed to stand for about 20 hours to allow movement of the termiticide(s) downward into the soil. After this time a plastic cap of 13 mm inside diameter was placed on the top of each section of tubing. The plastic caps with the holes drilled in their centers were removed from the bottom of each section of tubing, and a piece of 0.5 cm×4 cm filter paper was then placed between the two sections of applicator sticks. Fifty termite (Reticulitermes flavipes) workers were then inserted into the 5 cm void in the bottom of each section of tubing. New plastic caps without holes drilled in their centers were placed on the bottom of each section of tubing. The sections of tubing were then stored in an upright position, with the termites located below the soil. Termite mortality was measured at 1 hour, 2 hours, 1 day, 2 days and 7 days after treatment.

[2] = system: termite (Reticulitermes flavipes) workers; assay: Test to Determine Termite Mortality by Applications of Combinations of Bifenthrin and Imidacloprid (soil column in glass tube)
Method: as §1
Test compositions made up of TALSTAR® TERMITICIDE/INSECTICIDE and a wettable powder of imidacloprid in distilled water were prepared that provided appropriate rates of application of combinations of bifenthrin and imidacloprid, as well as bifenthrin and imidacloprid alone.
as §2, with “imidacloprid” for “thiamethoxam”

[3] = system: termite (Reticulitermes flavipes) workers; assay: Test to Determine Termite Mortality by Applications of Combinations of Bifenthrin and Clothianadin (soil column in glass tube)
Method: as §1
Test compositions made up of TALSTAR® TERMITICIDE/INSECTICIDE and a wettable powder of clothianadin in distilled water were prepared that provided appropriate rates of application of combinations of bifenthrin and clothianadin, as well as bifenthrin and clothianadin alone.
as §2, with “clothianadin” for “thiamethoxam”

[4] = Rate of Appln. 10 PPM (0.001 % by weight)
[5] = Rate of Appln. 50 PPM (0.005 % by weight)

In the case of Cc1c(COC(=O)[C@@H]2[C@H](/C=C(\Cl)C(F)(F)F)C2(C)C)cccc1-c1ccccc1 (racemic) [A, bifenthrin], the “Mortality Rate @ 1 Day” value [1, 4] is reported as 3%, the “Mortality Rate @ 1 Hour” value [1, 4] is reported as 0% and the “Mortality Rate @ 2 Days” value [1, 4] is reported as 5%. For the same compound, the “Mortality Rate @ 2 Hours” value [1, 4] was 0%, the “Mortality Rate @ 7 Days” value [1, 4] was 100% and the “Mortality Rate @ 1 Day” value [1, 5] was 10%. For the same compound, the “Mortality Rate @ 1 Hour” value [1, 5] was 0%, the “Mortality Rate @ 2 Days” value [1, 5] was 65% and the “Mortality Rate @ 2 Hours” value [1, 5] was 0%. For the same compound, the “Mortality Rate @ 7 Days” value [1, 5] was 100%, the “Mortality Rate @ 1 Day” value [2, 4] was 13% and the “Mortality Rate @ 1 Hour” value [2, 4] was 0%. For the same compound, the “Mortality Rate @ 2 Days” value [2, 4] was 24%, the “Mortality Rate @ 2 Hours” value [2, 4] was 0% and the “Mortality Rate @ 7 Days” value [2, 4] was 95%. The “Mortality Rate @ 1 Day” value [2, 5] was 21%, the “Mortality Rate @ 1 Hour” value [2, 5] was 0% and the “Mortality Rate @ 2 Days” value [2, 5] was 78%. For the same compound, the “Mortality Rate @ 2 Hours” value [2, 5] was 0%, the “Mortality Rate @ 7 Days” value [2, 5] was 100% and the “Mortality Rate @ 1 Day” value [3, 4] was 13%. The “Mortality Rate @ 1 Hour” value [3, 4] was 0%, the “Mortality Rate @ 2 Days” value [3, 4] was 24% and the “Mortality Rate @ 2 Hours” value [3, 4] was 0%. The “Mortality Rate @ 7 Days” value [3, 4] was 95%, the “Mortality Rate @ 1 Day” value [3, 5] was 21% and the “Mortality Rate @ 1 Hour” value [3, 5] was 0%. For the same compound, the “Mortality Rate @ 2 Days” value [3, 5] was 78%, the “Mortality Rate @ 2 Hours” value [3, 5] was 0% and the “Mortality Rate @ 7 Days” value [3, 5] was 100%.
